Results on one compound are retold here after patent publication US20160374985A1, “Bioactivity proanthocyanidin compound isolated from Lasia spinosa (L.) Thwait” (Hong Kong Baptist University, priority 2015, published 2016).

In one data set the test system is RAW264.7 macrophages. The experiment in a line: Cell viability of RAW macrophages. The format is cell-based, murine. The conditions noted are these: RAW cells, 1.56-50 μg/mL, 20 hours. The protocol: Murine RAW264.7 macrophages and human esophageal cancer cell lines KYSE-70, KYSE-150, KYSE-410, KYSE-520 were maintained in RPMI 1640 or DMEM medium supplemented with 100 U/mL penicillin, 100 μg/mL streptomycin and 10% FBS in an incubator at 37° C. with a humidified atmosphere of 5% CO2. Cells were sub-cultured every three days at a dilution of 1:6. In the present invention, PA1 was dissolved in dimethyl sulfoxide (DMSO) to make stock solutions which were further diluted in culture medium for this experiment. Cells were seeded in a 96-well plate (3×10^3 cells/well) and allowed to attach to the plate overnight. […] Then, 20 μL of MTT (5 mg/mL stock in PBS) per well was added into the medium (200 μL) and incubated for 4 h at 37° C. Finally, the culture medium was removed and 200 μL of DMSO were added to dissolve the purple formazan crystals. Absorbance of the solution was measured using a microplate reader spectrophotometer (Bio-Rad Laboratories, Inc., Hercules, Calif.) at a wavelength of 570 nm.

The subject of data set [1] is KYSE-150 cells. Kind of data set: MTT cell viability, KYSE-150. The format is cell-based, human. The conditions noted are these: 6.25 μg/mL. How it is done: (§1) Murine RAW264.7 macrophages and human esophageal cancer cell lines KYSE-70, KYSE-150, KYSE-410, KYSE-520 were maintained in RPMI 1640 or DMEM medium supplemented with 100 U/mL penicillin, 100 μg/mL streptomycin and 10% FBS in an incubator at 37° C. with a humidified atmosphere of 5% CO2. Cells were sub-cultured every three days at a dilution of 1:6. In the present invention, PA1 was dissolved in dimethyl sulfoxide (DMSO) to make stock solutions which were further diluted in culture medium for this experiment. Cells were seeded in a 96-well plate (3×10^3 cells/well) and allowed to attach to the plate overnight. After the recovery, cells were treated with 1.56, 3.125, 6.25, 12.5, 25, 50 μg/mL of PA1 in culture medium for 48 h. Then, 20 μL of MTT (5 mg/mL stock in PBS) per well was added into the medium (200 μL) and incubated for 4 h at 37° C. Finally, the culture medium was removed and 200 μL of DMSO were added to dissolve the purple formazan crystals. Absorbance of the solution was measured using a microplate reader spectrophotometer (Bio-Rad Laboratories, Inc., Hercules, Calif.) at a wavelength of 570 nm.

For data set [2], the system named is KYSE-150 cells. Kind of data set: Wound healing assay. The settings on record: PA1 6.25 μg/mL, 72 hours. It is filed as cell-based, human. The protocol:
(§2) Murine RAW264.7 macrophages and human esophageal cancer cell lines KYSE-70, KYSE-150, KYSE-410, KYSE-520 were maintained in RPMI 1640 or DMEM medium supplemented with 100 U/mL penicillin, 100 μg/mL streptomycin and 10% FBS in an incubator at 37° C. with a humidified atmosphere of 5% CO2. Cells were sub-cultured every three days at a dilution of 1:6.
6×10^4 cell/well were seeded in 12 well-plate at 30% confluence in completed medium. After 24 hours seeding, the monolayer was wounded by scoring with a sterile plastic tip (1 mL), then washed twice with PBS to remove cell debris and then incubated in a conditioned medium in the absence or presence of PA1 at 6.25 μg/mL for various periods of time up to 72 hours. Cell migration into the wound surface was monitored by Olympus IX71 microscopy and digitally photographed.
In addition, wound-healing assay was used to test whether those compounds could affect cell motility. A confluent monolayer of KYSE-150 cells was scratched to form a wound and incubated in the absence or presence of PA1 at 6.25 μg/mL. The results obtained were compared to that of controls.

The subject of a further data set is KYSE-450 cells. The experiment in a line: MTT cytotoxicity assay. It is filed as cell-based. The conditions noted are these: Homo sapiens, 48 h. The protocol:
as §2
as §1, with “In” for “Murine RAW264.7 macrophages and human esophageal cancer cell lines KYSE-70, KYSE-150, KYSE-410, KYSE-520 were maintained in RPMI 1640 or DMEM medium supplemented with 100 U/mL penicillin, 100 μg/mL streptomycin and 10% FBS in an incubator at 37° C. with a humidified atmosphere of 5% CO2. Cells were sub-cultured every three days at a dilution of 1:6. In”
To determine the cytotoxic effect of PA1 against human esophagus cancer cells (KYSE-70, KYSE-150, KYSE-450 and KYSE-520 cell lines), MTT (3-[4,5-dimethylthiazol-2-yl]-2,5-diphenyltetrazolium bromide) assay was performed.

The subject of data set [3] is LPS-stimulated RAW264.7 macrophages. Kind of data set: Nitric oxide production determination (Griess reagent). The format is cell-based, murine. The settings on record: LPS 100 ng/mL, PA1 1.56-50 μg/mL, vs LPS-alone. The protocol:
Murine RAW264.7 macrophages and human esophageal cancer cell lines KYSE-70, KYSE-150, KYSE-410, KYSE-520 were maintained in RPMI 1640 or DMEM medium supplemented with 100 U/mL penicillin, 100 μg/mL streptomycin and 10% FBS in an incubator at 37° C. with a humidified atmosphere of 5% CO2. Cells were sub-cultured every three days at a dilution of 1:6. Nitric oxide (NO) production was indirectly assessed by measuring the nitrite levels in the cultured medium determined by a colorimetric method based on the Griess reagent. The cells were co-treated with various concentrations of PA1 in the absence or presence of LPS (100 ng/mL) at 37° C. for 24 hours. Then, 100 μL of each supernatant was mixed with the equal volume of Griess reagent incubated at room temperature for 15 minutes; meanwhile, sodium nitrite was used as a standard substance. The optical densities were measured at 540 nm with a micro-plate reader.

The subject of the next data set is DSS-induced colitis. Kind of data set: DSS-induced colitis mouse model. It is filed as in vivo, C57BL/6 mice. The source says: 7-week-old male C57BL/6 mice weighing about 20-22 g were purchased from the Laboratory Animal Services Center, the Chinese University of Hong Kong. The study protocols were approved by the committee for Care of Laboratory Animals in the School of Chinese Medicine at the Hong Kong Baptist University.
The animals were randomly assigned into five groups (n=8). Mice in the control group were supplied with distilled water whereas all other experimental groups were given 2.0% (w/v) dextran sulphate sodium (DSS) for 5 days. Thereafter, the mice of the DSS, SASP-treated (200 mg/kg/day) and PA1 (10 or 30 mg/kg/day)-treated groups were administered by gavage with saline, SASP or PA1 from day 6 to day 13, respectively.
The DAI was determined by scoring changes in the body weight, diarrhea, colon length, and bleeding.
The colons were dissected longitudinally, gently washed with ice-cold phosphate buffer saline (PBS), fixed in 4% paraformaldehyde overnight, and embedded in paraffin. Each of five-micro-meter sections was stained with hematoxylin/eosin according to a standard procedure to evaluate colonic damage.
Myeloperoxidase (MPO) is an enzyme mainly released by neutrophil, and its activity is directly associated with the severity of inflammation in a given tissue. In the present invention, MPO activity was measured as described in the inventor's earlier publication (Mu, H. X., et al., Anti-inflammatory Actions of (|)-3′alpha-Angeloxy-4′-keto-3′,4′-dihydroseselin (Pd-Ib) against Dextran Sulfate Sodium-Induced Colitis in C57BL/6 Mice. J Nat Prod, 2016). The results were normalized to the wet weight of colon tissue and quantified as units/g tissue.

[4] abbreviates: mice, 2% DSS, PA1 10 or 30 mg/kg/day by gavage day 6-13.

In brackets after ≈: the same amount, converted by molar mass.

For `Oc1cc(O)c2c(c1)OC1(c3ccc(O)c(O)c3)Oc3cc(O)c4c(c3C2C1O)OC(c1ccc(O)c(O)c1)[C@@H](O)C4` (some centres unmarked) [PA1, proanthocyanidin A1], the Cell viability entry in the data set with RAW264.7 macrophages and in the data set with KYSE-150 cells [1] was “did not alter the cells viability” in each case. Moreover, the “Cell migration into the wound” value with KYSE-150 cells [2] is recorded as “did not migrate into the wound”. Also, in the data set on KYSE-450 cells, half-maximal inhibition (IC50) was put at 48.6 mg/L (≈ 84.4 µM). Also, the NO production result in data set [3] is given as “significant inhibition of NO production”. Moreover, the “Colonic MPO activity” value with DSS-induced colitis (colon homogenates, day 14, vs DSS group) is reported as “significantly lower the MPO activity”. In the data set with DSS-induced colitis (mice, 2% DSS, PA1 10 or 30 mg/kg, vs DSS group), the “Histological manifestation of colon (H&E)” value was “reduction in mucosal ulceration, crypt damage, edema, and cell infiltration into mucosal tissue”. Also, the “Disease activity index (DAI) score” value in the data set on DSS-induced colitis (setting [4]) is listed as “clinical improvement”. The Mortality result in the data set on DSS-induced colitis (setting [4]) was “decreased”. The Body weight loss entry in the data set on DSS-induced colitis (mice, 2% DSS, PA1 10 or 30 mg/kg/day by gavage day 6-13, vs DSS group) is on record as “reduced body weight loss”. In addition, the “Shortening of colon length” value in the data set with DSS-induced colitis (mice, 2% DSS, PA1 10 or 30 mg/kg/day by gavage, day 14) was “rectified”.
